From patent US20230043863A1, “HETEROAROMATIC DERIVATIVES FOR USE AS REGULATOR, PREPARATION METHOD THEREFOR AND USE THEREOF” (JIANGSU HANSOH PHARMACEUTICAL GROUP CO., LTD., priority 2018, published 2023)

Tests used:
[1] = test system: JAK-STAT signal pathway of U266 cells; assay: Inhibition of cellular JAK-STAT signal pathway (STAT3 phosphorylation) in U266 cells; type: cell-based, human
Description: The objective of the test is to test the inhibitory activity of the compound on the cellular JAK-STAT signaling pathway.
U266 cell line was used in this experiment, by activating the JAK-STAT signaling pathway through INF-a stimulation, the inhibitory activity of the compound on its downstream STAT3 phosphorylation was detected, and the half inhibitory concentration IC50 of the compound on the JAK-STAT signaling pathway activity was obtained.
3-12 μL of U266 cell line was spread into the 384-well detection plate, and the number of cells in each well was 100-300 K, followed by addition of 2 μL of the compound solution serially diluted. The plate was incubated for 2 hours with shaking at 350 rpm at room temperature. After 2 hours, 2 μL of INF-a with a final concentration of 1000 U/mL was added. The plate was shaken at room temperature for 15 minutes. 2-5 μL (5×) LANCE Ultra Lysis Buffer 2 solution was added and the plate was shaken at room temperature for 2 hours. After 2 hours, 5 μL of LANCE Ultra Eu-labeled Anti-STAT3 Antibody (PerkinElmer) with a final concentration of 0.5 nM and LANCE Ultra ULight-labeled Anti-STAT3 Antibody (PerkinElmer) with a final concentration of 5 nM were added, and the plate was incubated overnight at room temperature. The fluorescence signal value at 665 nm of each well was measured with the microplate reader, and the inhibition rate was calculated from the fluorescence signal value. According to the inhibition rate of different concentrations, the IC50 of the compound was obtained by curve fitting.
The percentage inhibition data of the wells treated with the compound was calculated with the positive control wells (DMSO control wells) and negative control wells (no kinase added) on the plate {% inhibition rate=100-[(test compound value-negative control value)]/(Positive control value-negative control value)×100}. IC50 value was calculated by using GraphPad prism to fit the data of different concentrations and corresponding percentage inhibition rates to a 4-parameter non-linear logic formula.

TYK2 = TYK2 (Homo sapiens, UniProt P29597); assay: JAK kinase activity inhibition, TR-FRET (TYK2); type: biochemical; settings: TR-FRET kinase assay
TYK2, sequence (P29597 whole entry): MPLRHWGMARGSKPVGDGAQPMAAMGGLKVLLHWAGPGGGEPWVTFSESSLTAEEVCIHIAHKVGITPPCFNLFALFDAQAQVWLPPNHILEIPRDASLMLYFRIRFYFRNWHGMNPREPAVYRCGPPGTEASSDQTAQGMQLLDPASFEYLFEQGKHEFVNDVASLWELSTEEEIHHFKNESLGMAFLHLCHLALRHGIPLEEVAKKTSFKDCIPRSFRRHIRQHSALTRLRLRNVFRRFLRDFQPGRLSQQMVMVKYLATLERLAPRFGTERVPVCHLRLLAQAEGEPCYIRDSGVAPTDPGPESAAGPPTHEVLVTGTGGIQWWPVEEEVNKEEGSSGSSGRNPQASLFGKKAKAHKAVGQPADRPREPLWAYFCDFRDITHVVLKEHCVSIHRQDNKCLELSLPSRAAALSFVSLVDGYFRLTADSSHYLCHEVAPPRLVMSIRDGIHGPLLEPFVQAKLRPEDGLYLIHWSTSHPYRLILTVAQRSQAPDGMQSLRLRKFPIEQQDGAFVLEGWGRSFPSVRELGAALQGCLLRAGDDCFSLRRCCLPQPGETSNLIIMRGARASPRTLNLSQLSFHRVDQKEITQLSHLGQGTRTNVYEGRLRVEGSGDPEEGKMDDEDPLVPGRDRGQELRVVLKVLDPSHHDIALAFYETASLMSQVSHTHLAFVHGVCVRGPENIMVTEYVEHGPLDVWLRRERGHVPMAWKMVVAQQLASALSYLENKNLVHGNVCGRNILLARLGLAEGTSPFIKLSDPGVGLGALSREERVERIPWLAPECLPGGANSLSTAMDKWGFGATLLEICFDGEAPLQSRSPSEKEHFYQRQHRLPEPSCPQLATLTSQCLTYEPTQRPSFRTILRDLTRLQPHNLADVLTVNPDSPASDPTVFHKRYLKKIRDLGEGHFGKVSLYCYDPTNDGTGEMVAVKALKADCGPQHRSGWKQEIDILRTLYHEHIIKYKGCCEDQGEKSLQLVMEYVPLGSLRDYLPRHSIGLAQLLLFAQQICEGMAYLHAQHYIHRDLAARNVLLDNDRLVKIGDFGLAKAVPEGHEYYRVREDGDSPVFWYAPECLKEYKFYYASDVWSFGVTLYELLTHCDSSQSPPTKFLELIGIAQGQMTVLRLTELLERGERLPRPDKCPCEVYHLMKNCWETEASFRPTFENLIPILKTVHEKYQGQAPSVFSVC
Procedure, shortened: (§1)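 Recombinant kinase at 0.1-20 nM, peptide substrate, ATP; room temperature, 0.5-5 h; EDTA stop, labeled-antibody TR-FRET readout; IC50 by curve fit.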

JAK1 = JAK1 (Homo sapiens, UniProt P23458); assay: JAK kinase activity inhibition, TR-FRET (JAK1); type: biochemical; settings: TR-FRET kinase assay
JAK1, sequence (P23458 whole entry): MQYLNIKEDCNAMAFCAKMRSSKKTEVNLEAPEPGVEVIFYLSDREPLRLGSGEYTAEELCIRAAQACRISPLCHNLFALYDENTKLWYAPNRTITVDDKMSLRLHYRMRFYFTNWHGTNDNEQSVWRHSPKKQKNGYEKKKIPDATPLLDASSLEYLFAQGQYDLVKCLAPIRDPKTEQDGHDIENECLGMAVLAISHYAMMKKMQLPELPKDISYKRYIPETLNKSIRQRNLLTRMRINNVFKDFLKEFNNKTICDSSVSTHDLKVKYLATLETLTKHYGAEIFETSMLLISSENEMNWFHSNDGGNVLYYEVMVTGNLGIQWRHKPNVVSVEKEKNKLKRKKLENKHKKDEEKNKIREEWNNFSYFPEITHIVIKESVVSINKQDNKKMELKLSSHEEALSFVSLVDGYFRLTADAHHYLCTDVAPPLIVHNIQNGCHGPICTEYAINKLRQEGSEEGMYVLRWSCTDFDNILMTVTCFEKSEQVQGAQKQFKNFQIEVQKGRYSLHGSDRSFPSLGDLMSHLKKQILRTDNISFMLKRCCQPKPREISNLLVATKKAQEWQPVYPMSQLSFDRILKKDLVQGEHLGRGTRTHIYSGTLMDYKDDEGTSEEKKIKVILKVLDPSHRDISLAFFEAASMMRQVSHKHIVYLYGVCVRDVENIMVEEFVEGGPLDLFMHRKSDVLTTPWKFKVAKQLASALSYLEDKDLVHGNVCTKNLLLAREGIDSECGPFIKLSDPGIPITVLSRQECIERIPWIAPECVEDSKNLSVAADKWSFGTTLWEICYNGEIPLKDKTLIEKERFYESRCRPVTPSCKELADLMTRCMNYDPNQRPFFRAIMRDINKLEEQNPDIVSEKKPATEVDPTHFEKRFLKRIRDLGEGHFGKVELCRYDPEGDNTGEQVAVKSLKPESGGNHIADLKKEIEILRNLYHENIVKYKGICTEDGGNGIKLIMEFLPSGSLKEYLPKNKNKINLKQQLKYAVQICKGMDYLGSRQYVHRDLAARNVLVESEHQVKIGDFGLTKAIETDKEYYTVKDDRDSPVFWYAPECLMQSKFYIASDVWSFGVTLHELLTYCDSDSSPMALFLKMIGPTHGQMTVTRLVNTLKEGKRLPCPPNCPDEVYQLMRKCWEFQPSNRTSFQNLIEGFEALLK
Procedure, shortened: as §1

[2] = Homo sapiens, U-266, INF-a 1000 U/mL stimulation

Compound	IC50 [1, 2] [nM]	IC50 (TYK2) [nM]	IC50 (JAK1) [nM]	IC50 ([1]; INF-a 1000 U/mL stimulation) [nM]
Cc1cc(Nc2nc(N[C@@H]3C[C@H]4CC[C@@H](C3)N4C(=O)[C@H]3CCCN3)nc3sccc23)n[nH]1 [Embodiment 248, ((3-exo)-3-((4-((5-methyl-1H-pyrazol-3-yl)amino)thieno[2,3-d]pyrimidin-2-yl)amino)-9-azabicyclo[3.3.1]non-9-yl) ((R)-pyrrolidin-2-yl)methanone]	43.5	0.36	0.44	
CCNCC(=O)N1[C@@H]2CC[C@H]1C[C@H](Nc1nc(Nc3cc(C)[nH]n3)c3ccsc3n1)C2 [Embodiment 255, 2-(ethylamino)-1-((3-exo)-3-((4-((5-methyl-1H-pyrazol-3-yl)amino)thieno[2,3-d]pyrimidin-2-yl)amino)-8-azabicyclo[3.2.1]oct-8-yl)ethane-1-one]	8.67	2.38	1.17	
Cc1cc(Nc2nc(N[C@@H]3C[C@H]4CC[C@@H](C3)N4CCC#N)nc3scnc23)n[nH]1 [Embodiment 66, 3-((3-exo)-3-((7-((5-methyl-1H-pyrazol-3-yl)amino)thiazolo[5,4-d]pyrimidin-5-yl)amino)-8-azabicyclo[3.2.1]oct-8-yl)propionitrile]	4.06	1.49	3.02	
Cc1cc(Nc2nc(N[C@@H]3C[C@H]4CCC[C@@H](C3)N4Cc3nccn3C)nc3sccc23)n[nH]1 [Embodiment 272, N^2-((3-exo)-9-((1-methyl-1H-imidazol-2-yl)methyl)-9-azabicyclo[3.3.1]non-3-yl)-N^4-(5-methyl-1H-pyrazol-3-yl)thieno[2,3-d]pyrimidin-2,4-diamine]	15.3	24.7	0.6	
Cc1cc(Nc2nc(N(C)[C@@H]3C[C@H]4CC[C@@H](C3)N4S(=O)(=O)N3CC(C#N)C3)nc3sc(C)cc23)n[nH]1 [Embodiment 240, 1-(((3-exo)-3-(methyl(6-methyl-4-((5-methyl-1H-pyrazol-3-yl)amino)thieno[2,3-d]pyrimidin-2-yl)amino)-8-azabicyclo[3.2.1]oct-8-yl)sulfonyl)azetindin-3-formonitrile]	14.4	0.68	0.49	
Cc1cc(Nc2nc(N[C@@H]3C[C@H]4CC[C@@H](C3)N4C(=O)CN(C)C)nc3ccsc23)n[nH]1 [Embodiment 287, 2-(dimethylamine)-1-((3-exo)-3-((4-((5-methyl-1H-pyrazol-3-yl)amino)thieno[3,2-d]pyrimidin-2-yl)amino)-8-azabicyclo[3.2.1]oct-8-yl)ethane-1-one]	10.5	4.21	0.58	
Cc1cc(Nc2nc(N[C@@H]3C[C@H]4CC[C@@H](C3)N4CC(=O)N(C)C)nc3ccsc23)n[nH]1 [Embodiment 293, N,N-dimethyl-2-((3-exo)-3-((4-((5-methyl-1H-pyrazol-3-yl)amino)thieno[3,2-d]pyrimidin-2-yl)amino)-8-azabicyclo[3.2.1]oct-8-yl)acetamide]	16.5	10.8	3.97	
Cc1cc2nc(N[C@@H]3C[C@H]4CCC[C@@H](C3)N4CCC#N)nc(Nc3cc(CO)[nH]n3)c2s1 [Embodiment 294]	15.3	0.23	0.64	
Cc1cc(Nc2nc(N(C)[C@@H]3C[C@H]4CC[C@@H](C3)N4C(=O)CN3CCOCC3)nc3sccc23)n[nH]1 [Embodiment 245, 1-((3-exo)-3-(methyl(4-((5-methyl-1H-pyrazol-3-yl)amino)thieno[2,3-d]pyrimidin-2-yl)amino)-8-azabicyclo[3.2.1]oct-8-yl)-2-morpholinoethane-1-one]		2.76	2.77	16.7
Cc1cc(Nc2nc(N[C@@H]3C[C@H]4CC[C@@H](C3)N4CCC#N)c3cccn3n2)n[nH]1 [Embodiment 72, 3-((3-exo)-3-((2-((5-methyl-1H-pyrazol-3-yl)amino)pyrrolo[2,1-f][1,2,4]triazin-4-yl)amino)-8-azabicyclo[3.2.1]oct-8-yl)propionitrile]	5.39	16	4.32	
